System: Karpas cells
Test: Detection of surface protein combinations of the protein network on untreated (V1) and actinonin-treated (V2) Karpas cells
Type: cell-based
Details: for V2 no. of cells: actinonin-treated Karpas cells
Source text: Principally, detecting of the surface protein combinations may comprise procedural steps of an automated method for determining molecular classes, molecular groups or molecular parts in a solid or liquid object according to DE 197 09 348 C. In these steps, surface proteins may be examined and measured in one and the same object, i.e. in a sample of immune cells and/or tumor cells for example, by sequentially applying reagent solutions Yn (n=1,2,3, . . . N) by means of an automated apparatus, said procedural steps being: I. taking a first reagent solution Y1 from a vessel containing the reagent solution, II. applying said reagent solution Y1 to the object which is on an object slide, III. allowing the reagent solution to react for an automatically set period of time, IV. recording at least one individual labeling pattern of the object previously labeled with said first reagent solution Y1, V. repeating steps I-IV by applying said first reagent solution Y1 or a second reagent solution Y2 or a mixture of said first and second reagent solutions, and VI. repeating steps I to V with further reagent solutions Yn (n=2,3, . . . N) or a mixture thereof and whereby the labeling distribution patterns obtained in each cycle of the method are turned into a complex molecular combination pattern of the object to be examined by computer-aided image overlay. From this combination pattern, information may be gained on the presence of the above mentioned proteins, thus also allowing detection of the surface protein combinations, if the reagent solutions used contain labeled substances directed against the proteins in question. In numerous examinations, it was possible to identify the 30 cell surface proteins already listed above which belong to a specific protein network controlling the early polarization stages of tumor cells and immune cells. In a further examination, surface protein combinations of this protein network of Karpas cells were detected, both in untreated form and after treatment with the aminopeptidase inhibitor actinonin. For this purpose, two groups V1 and V2 of Karpas cells were formed, with the cells of group Vl remaining untreated, while the cells of group V2 were treated with actinonin. Table 2 lists those surface protein combinations which are present both in the actinonin-treated cells and in the untreated cells. However, this table and the further tables 3 and 4 only give examples of 18 of the 30 proteins, with the detected proteins being designated 1 and the non-detected proteins being designated 0. The proteins are continuously numbered 1 to 18, with the nomenclature being notable from table 1. [table] The cell numbers stated in tables 2 to 4 refer to each 1,000 cells examined in groups V1 and V2. Table 3 lists the surface protein combinations which only occur in the untreated Karpas cells and are never found in the actinonin-treated Karpas cells. The number of protein combinations listed in this table 3 amounts to 131. Finally, table 4 exclusively lists those surface protein combinations which occur exclusively in the actinonin-treated Karpas cells. It may be gathered from tables 2 to 4 that, if one examines merely 18 proteins of the 30 proteins, a total of 394 different surface protein combinations will occur, with a total of 334 different combinations occurring in the untreated cells and a total of 263 different combinations being detected in the treated cells.

SMILES: CCCCC[C@H](CC(=O)NO)C(=O)N[C@H](C(=O)N1CCC[C@H]1CO)C(C)C [actinonin]
- V2 No. of cells In 1/1000 (actinonin-treated Karpas cells (V2), surface protein combination No. 118, binary code 000100010100000000): 0.0 1/1000
- V2 No. of cells In 1/1000 (actinonin-treated Karpas cells (V2), surface protein combination No. 119, binary code 000100010001011000): 0.0 1/1000
- V2 No. of cells In 1/1000 (actinonin-treated Karpas cells (V2), surface protein combination No. 120, binary code 000100001001001000): 0.0 1/1000
- V2 No. of cells In 1/1000 (actinonin-treated Karpas cells (V2), surface protein combination No. 121, binary code 000100000101001000): 0.0 1/1000
- V2 No. of cells In 1/1000 (actinonin-treated Karpas cells (V2), surface protein combination No. 122, binary code 000100000101000000): 0.0 1/1000
- V2 No. of cells In 1/1000 (actinonin-treated Karpas cells (V2), surface protein combination No. 123, binary code 000100000011000000): 0.0 1/1000
- V2 No. of cells In 1/1000 (actinonin-treated Karpas cells (V2), surface protein combination No. 124, binary code 000000011101011000): 0.0 1/1000
- V2 No. of cells In 1/1000 (actinonin-treated Karpas cells (V2), surface protein combination No. 125, binary code 000000011000001000): 0.0 1/1000
- V2 No. of cells In 1/1000 (actinonin-treated Karpas cells (V2), surface protein combination No. 126, binary code 000000010100000100): 0.0 1/1000
- V2 No. of cells In 1/1000 (actinonin-treated Karpas cells (V2), surface protein combination No. 127, binary code 000000010000011000): 0.0 1/1000
- V2 No. of cells In 1/1000 (actinonin-treated Karpas cells (V2), surface protein combination No. 128, binary code 000000010000000100): 0.0 1/1000
- V2 No. of cells In 1/1000 (actinonin-treated Karpas cells (V2), surface protein combination No. 129, binary code 000000001011000000): 0.0 1/1000
- V2 No. of cells In 1/1000 (actinonin-treated Karpas cells (V2), surface protein combination No. 130, binary code 000000000001001100): 0.0 1/1000
- V2 No. of cells In 1/1000 (actinonin-treated Karpas cells (V2), surface protein combination No. 131, binary code 000000000001000100): 0.0 1/1000
- V2 no. of cells In 1/1OOO, total (actinonin-treated Karpas cells (V2), total over all 203 protein combinations of Table 2): 990.9 1/1OOO
- V2 No. of cells In 1/1000, total (actinonin-treated Karpas cells (V2), total over the 131 surface protein combinations of Table 3): 0 1/1000
- V2 no. of cells (protein code No. 1, proteins 1-18 binary 000000000000000000): 153.2 1/1OOO
- V2 no. of cells (protein code No. 2, proteins 1-18 binary 001000010101001000): 91.9 1/1OOO
- V2 no. of cells (protein code No. 3, proteins 1-18 binary 001000010001000000): 57.6 1/1OOO
- V2 no. of cells (protein code No. 4, proteins 1-18 binary 000000010001000000): 62.2 1/1OOO
- V2 no. of cells (protein code No. 5, proteins 1-18 binary 001000010001001000): 37.9 1/1OOO
- V2 no. of cells (protein code No. 6, proteins 1-18 binary 001000010101000000): 44.3 1/1OOO
- V2 no. of cells (protein code No. 7, proteins 1-18 binary 001100010101001000): 37.6 1/1OOO
- V2 no. of cells (protein code No. 8, proteins 1-18 binary 000000010000000000): 41.8 1/1OOO
- V2 no. of cells (protein code No. 9, proteins 1-18 binary 001000010111001000): 31.4 1/1OOO
- V2 no. of cells (protein code No. 10, proteins 1-18 binary 001100010111011000): 29.7 1/1OOO
- V2 no. of cells (protein code No. 11, proteins 1-18 binary 000000000001000000): 29.3 1/1OOO
- V2 no. of cells (protein code No. 12, proteins 1-18 binary 001100010111001000): 24.2 1/1OOO
- V2 no. of cells (protein code No. 13, proteins 1-18 binary 001000010011001000): 15.4 1/1OOO
- V2 no. of cells (protein code No. 14, proteins 1-18 binary 000000010101000000): 22.3 1/1OOO
- V2 no. of cells (protein code No. 15, proteins 1-18 binary 101100010111011000): 17.3 1/1OOO
- V2 no. of cells (protein code No. 16, proteins 1-18 binary 001000010111011000): 15.0 1/1OOO
- V2 no. of cells (protein code No. 17, proteins 1-18 binary 001000010101011000): 15.5 1/1OOO
- V2 no. of cells (protein code No. 18, proteins 1-18 binary 001100010101011000): 9.7 1/1OOO
- V2 no. of cells (protein code No. 19, proteins 1-18 binary 000000010101001000): 13.4 1/1OOO
- V2 no. of cells (protein code No. 20, proteins 1-18 binary 000000000100000000): 14.5 1/1OOO
- V2 no. of cells (protein code No. 21, proteins 1-18 binary 001100010001001000): 6.3 1/1OOO
- V2 no. of cells (protein code No. 22, proteins 1-18 binary 001000010011000000): 6.7 1/1OOO
- V2 no. of cells (protein code No. 23 (second line so numbered), proteins 1-18 binary 000000000101000000): 11.0 1/1OOO
- V2 no. of cells (protein code No. 23, proteins 1-18 binary 001000000001000000): 7.4 1/1OOO
- V2 no. of cells (protein code No. 24, proteins 1-18 binary 001000010000000000): 5.7 1/1OOO
- V2 no. of cells (protein code No. 25, proteins 1-18 binary 000000000000001000): 7.3 1/1OOO
- V2 no. of cells (protein code No. 27, proteins 1-18 binary 010000001100000000): 7.5 1/1OOO
- V2 no. of cells (protein code No. 28, proteins 1-18 binary 000000010100000000): 8.9 1/1OOO
- V2 no. of cells (protein code No. 29, proteins 1-18 binary 000000010001001000): 7.0 1/1OOO
- V2 no. of cells (protein code No. 30, proteins 1-18 binary 001100010011001000): 4.0 1/1OOO
- V2 no. of cells (protein code No. 31, proteins 1-18 binary 101000010111011000): 2.8 1/1OOO
- V2 no. of cells (protein code No. 32, proteins 1-18 binary 000000001000000000): 6.1 1/1OOO
- V2 no. of cells (protein code No. 33, proteins 1-18 binary 001000010111000000): 5.3 1/1OOO
- V2 no. of cells (protein code No. 34, proteins 1-18 binary 001000010011011000): 3.2 1/1OOO
- V2 no. of cells (protein code No. 35, proteins 1-18 binary 001000010001011000): 4.8 1/1OOO
- V2 no. of cells (protein code No. 37, proteins 1-18 binary 010000001100001000): 3.9 1/1OOO
- V2 no. of cells (protein code No. 38 (first line so numbered), proteins 1-18 binary 000000001100000000): 5.4 1/1OOO
- V2 no. of cells (protein code No. 38 (second line so numbered), proteins 1-18 binary 001000011101001000): 4.3 1/1OOO
- V2 no. of cells (protein code No. 39, proteins 1-18 binary 000000010011000000): 2.5 1/1OOO
- V2 no. of cells (protein code No. 40, proteins 1-18 binary 001000000101000000): 4.7 1/1OOO
- V2 no. of cells (protein code No. 41, proteins 1-18 binary 001100010011011000): 4.0 1/1OOO
- V2 no. of cells (protein code No. 42, proteins 1-18 binary 001100010101000000): 0.8 1/1OOO
- V2 no. of cells (protein code No. 43, proteins 1-18 binary 001000000000000000): 2.8 1/1OOO
- V2 no. of cells (protein code No. 44, proteins 1-18 binary 001000011101000000): 3.7 1/1OOO
- V2 no. of cells (protein code No. 45, proteins 1-18 binary 001100010001000000): 0.6 1/1OOO
- V2 no. of cells (protein code No. 46, proteins 1-18 binary 001000011001000000): 2.5 1/1OOO
- V2 no. of cells (protein code No. 47, proteins 1-18 binary 010000001100001100): 2.2 1/1OOO
- V2 no. of cells (protein code No. 48, proteins 1-18 binary 101100010101011000): 2.2 1/1OOO
- V2 no. of cells (protein code No. 49, proteins 1-18 binary 001000010100000000): 2.7 1/1OOO
- V2 no. of cells (protein code No. 50, proteins 1-18 binary 011000011101001000): 2.4 1/1OOO
- V2 no. of cells (protein code No. 51, proteins 1-18 binary 001000011111001000): 2.0 1/1OOO
- V2 no. of cells (protein code No. 52, proteins 1-18 binary 001100010001011000): 1.0 1/1OOO
- V2 no. of cells (protein code No. 53, proteins 1-18 binary 001000010000001000): 1.0 1/1OOO

Source: patent US20030130180A1, “Utilization of an aminopeptidase inhibitor” (priority 2000, published 2003)
